Experimental data: patent publication US20030166007A1, “Chemical proteomics” (MDS Proteomics Inc., priority 2002, published 2003)
“Also recorded” adds a separate entry of the source.

Assays:
[1] = target: T1, Deoxyguanosine kinase (Homo sapiens, UniProt Q16854); assay: MTX-agarose affinity chromatography of cell lysate, MS identification; assay type: binding; conditions: HEK 293 lysate
T1 construct: endogenous in cells; host or cells: HEK 293
T1 sequence (Q16854 40-277): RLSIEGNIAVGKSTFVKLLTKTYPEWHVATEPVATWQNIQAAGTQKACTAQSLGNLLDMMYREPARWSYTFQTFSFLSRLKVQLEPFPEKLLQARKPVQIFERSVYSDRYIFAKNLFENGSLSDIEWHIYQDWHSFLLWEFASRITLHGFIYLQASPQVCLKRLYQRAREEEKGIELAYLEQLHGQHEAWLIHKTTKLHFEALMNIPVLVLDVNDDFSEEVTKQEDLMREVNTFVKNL
Protocol: (§1) After incubation for 30 minutes at 4° C. with shaking, the lysates were clarified by centrifugation (27,000×g). In some experiments, cells were lysed using 20 strokes of a Dounce® homogenizer in the absence of detergents. […] While optimizing the protocol, however, several experimental variations were tested on cell lysates including concentration by ammonium sulfate precipitation, or removal of nucleic acid with Streptomycin sulfate. In such cases, the protein sample was desalted using a PD 10 protein-desalting column (Pharmacia), which had been pre-equilibrated in the same buffer (10 mM potassium phosphate pH 7.5)
(§2) Affinity Chromatography: The desalted lysate was loaded onto a column of pre-equilibrated MTX-agarose (Sigma, 50 μL bed volume) or sepharose 4B agarose as a negative control. The lysates were allowed to slowly flow through the matrix under gravity flow. […] Retentates from the microcons were then loaded onto SDS-PAGE 4%-15% gradient mini gels (Bio-Rad). […]
(§3) The peptides were then separated by reverse phase chromatography on C18 resin and directly injected into a mass spectrometer using an automated sample-loading device from 96 well plates. […] The spectra generated were analyzed on a custom-built multi-node server platform (RADARS, ProteoMetrics), which uses two database searching programs, Sonar (ProteoMetrics) and Mascot (Matrix Sciences). […]

[2] = target: T2, Pyridoxal Kinase (Homo sapiens, UniProt O00764); assay: as above; assay type: binding; conditions: HEK 293 lysate
T2 construct: endogenous in cells; host or cells: HEK 293
T2 sequence (O00764 1-312): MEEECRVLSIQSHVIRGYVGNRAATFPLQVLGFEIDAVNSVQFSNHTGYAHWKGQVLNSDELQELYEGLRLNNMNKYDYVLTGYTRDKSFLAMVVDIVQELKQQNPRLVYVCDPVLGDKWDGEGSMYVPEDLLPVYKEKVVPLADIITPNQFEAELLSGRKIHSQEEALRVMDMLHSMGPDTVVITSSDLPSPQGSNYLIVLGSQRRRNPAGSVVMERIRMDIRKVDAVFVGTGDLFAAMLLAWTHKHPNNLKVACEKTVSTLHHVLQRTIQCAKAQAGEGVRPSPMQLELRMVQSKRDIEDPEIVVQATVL
Protocol: as §1, §2, §3

[3] = system: Glycogen Phosphorylase; assay: as above; assay type: binding, human; conditions: HEK 293 lysate
Protocol: as §1, §2, §3

[4] = target: T3, Deoxycytidine Kinase (Homo sapiens, UniProt P27707); assay: as above; assay type: binding; conditions: HEK 293 lysate
T3 construct: endogenous in cells; host or cells: HEK 293
T3 sequence (P27707 whole entry): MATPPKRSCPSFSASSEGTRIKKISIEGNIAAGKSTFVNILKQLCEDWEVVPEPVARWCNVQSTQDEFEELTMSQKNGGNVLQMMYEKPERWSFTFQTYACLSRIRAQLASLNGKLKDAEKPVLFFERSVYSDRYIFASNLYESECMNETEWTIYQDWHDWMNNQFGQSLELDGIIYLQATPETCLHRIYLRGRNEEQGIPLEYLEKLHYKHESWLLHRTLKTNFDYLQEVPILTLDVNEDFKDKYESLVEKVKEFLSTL
Protocol: as §1, §2, §3

[5] = target: T4, Glutathione synthase (Homo sapiens, UniProt P48637); assay: as above; assay type: binding; conditions: HEK 293 lysate
T4 construct: endogenous in cells; host or cells: HEK 293
T4 sequence (P48637 1-474): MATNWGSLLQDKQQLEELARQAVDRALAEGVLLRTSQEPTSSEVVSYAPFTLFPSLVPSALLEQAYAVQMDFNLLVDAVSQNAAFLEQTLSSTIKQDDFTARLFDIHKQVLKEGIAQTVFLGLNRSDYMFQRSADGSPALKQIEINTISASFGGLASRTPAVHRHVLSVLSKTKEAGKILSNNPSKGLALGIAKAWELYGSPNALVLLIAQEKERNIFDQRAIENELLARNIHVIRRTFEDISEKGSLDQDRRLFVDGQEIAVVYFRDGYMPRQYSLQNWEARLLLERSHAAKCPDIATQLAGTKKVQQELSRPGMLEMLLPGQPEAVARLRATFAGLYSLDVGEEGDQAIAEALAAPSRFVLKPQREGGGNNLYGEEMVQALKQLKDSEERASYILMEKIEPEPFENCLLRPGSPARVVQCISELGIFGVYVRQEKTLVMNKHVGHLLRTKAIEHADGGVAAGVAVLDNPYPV
Protocol: as §1, §2, §3

[6] = target: T5, SAICAR synthetase (Homo sapiens, UniProt P22234); assay: as above; assay type: binding; conditions: HEK 293 lysate; bifunctional enzyme with AIR carboxylase
T5 construct: endogenous in cells; host or cells: HEK 293
T5 sequence (P22234 1-425): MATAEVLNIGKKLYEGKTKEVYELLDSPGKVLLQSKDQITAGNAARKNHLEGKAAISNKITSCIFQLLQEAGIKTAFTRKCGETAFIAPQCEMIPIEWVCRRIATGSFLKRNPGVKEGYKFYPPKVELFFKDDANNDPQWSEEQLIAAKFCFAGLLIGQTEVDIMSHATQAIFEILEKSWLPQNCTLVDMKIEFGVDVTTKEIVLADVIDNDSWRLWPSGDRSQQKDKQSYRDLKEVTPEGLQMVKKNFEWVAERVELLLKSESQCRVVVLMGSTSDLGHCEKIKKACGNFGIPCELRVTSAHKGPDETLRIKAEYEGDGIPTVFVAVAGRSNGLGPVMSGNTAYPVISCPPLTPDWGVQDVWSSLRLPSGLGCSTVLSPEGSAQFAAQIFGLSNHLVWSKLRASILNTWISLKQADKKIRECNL
Protocol: as §1, §2, §3

[7] = target: T6, muscle glycogen phosphorylase b (Homo sapiens, UniProt P11217); conditions: cited from earlier work
T6 sequence (P11217 1-842): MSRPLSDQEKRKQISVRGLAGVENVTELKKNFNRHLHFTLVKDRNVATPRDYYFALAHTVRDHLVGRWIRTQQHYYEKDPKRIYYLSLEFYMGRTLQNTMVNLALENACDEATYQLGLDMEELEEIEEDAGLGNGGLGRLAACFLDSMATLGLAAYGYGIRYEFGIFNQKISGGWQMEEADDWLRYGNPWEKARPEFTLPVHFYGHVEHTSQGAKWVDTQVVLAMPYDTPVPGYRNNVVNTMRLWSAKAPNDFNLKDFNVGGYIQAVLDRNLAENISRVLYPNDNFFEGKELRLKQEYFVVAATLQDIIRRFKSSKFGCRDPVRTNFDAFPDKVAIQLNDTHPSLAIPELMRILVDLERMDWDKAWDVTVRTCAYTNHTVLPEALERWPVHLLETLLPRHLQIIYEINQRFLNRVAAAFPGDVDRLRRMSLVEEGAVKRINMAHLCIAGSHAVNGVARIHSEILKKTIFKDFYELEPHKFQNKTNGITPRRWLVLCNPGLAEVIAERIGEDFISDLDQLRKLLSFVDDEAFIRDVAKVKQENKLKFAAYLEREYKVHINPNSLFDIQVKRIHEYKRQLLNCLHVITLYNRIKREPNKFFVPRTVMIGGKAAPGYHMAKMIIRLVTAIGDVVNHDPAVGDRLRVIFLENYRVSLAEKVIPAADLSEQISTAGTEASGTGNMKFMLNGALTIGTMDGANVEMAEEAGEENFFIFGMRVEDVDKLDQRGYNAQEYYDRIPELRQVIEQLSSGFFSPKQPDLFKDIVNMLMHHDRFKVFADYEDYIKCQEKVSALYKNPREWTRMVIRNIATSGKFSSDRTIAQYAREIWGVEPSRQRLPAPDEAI

[8] = system: intracellular levels of PRPP; conditions: reversible upon treatment with hypoxanthine; cited from earlier work
[9] = target: Amido phosphoribosyltransferase (Homo sapiens, UniProt Q06203); assay: MTX-agarose affinity chromatography of cell lysate, MS identification; assay type: binding; set-up: endogenous in cells; host or cells: HEK 293 (also Jurkat, K562, A431); conditions: lysates from HEK293, Jurkat, K562 and A431
Sequence of Amido phosphoribosyltransferase (Q06203 12-517): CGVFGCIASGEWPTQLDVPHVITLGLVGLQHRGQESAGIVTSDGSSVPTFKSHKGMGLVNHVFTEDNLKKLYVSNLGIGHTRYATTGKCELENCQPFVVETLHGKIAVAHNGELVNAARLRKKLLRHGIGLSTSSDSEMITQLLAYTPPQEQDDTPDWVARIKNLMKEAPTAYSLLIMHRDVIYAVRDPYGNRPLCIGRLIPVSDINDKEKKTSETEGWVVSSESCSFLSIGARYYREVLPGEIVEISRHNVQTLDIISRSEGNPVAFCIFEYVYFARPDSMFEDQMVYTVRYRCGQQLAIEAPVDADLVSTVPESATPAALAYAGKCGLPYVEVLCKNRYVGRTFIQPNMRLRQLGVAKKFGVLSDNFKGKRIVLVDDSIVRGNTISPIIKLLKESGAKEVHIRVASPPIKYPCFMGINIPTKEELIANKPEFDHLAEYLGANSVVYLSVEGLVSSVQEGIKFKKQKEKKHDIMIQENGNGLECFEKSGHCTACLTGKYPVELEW
Protocol: as §1, §2, §3

CN(Cc1cnc2nc(N)nc(N)c2n1)c1ccc(C(=O)N[C@@H](CCC(=O)O)C(=O)O)cc1 [Methotrexate]
Protein identified by Mass Spec.; New MTX interactor [1]: binds to Methotrexate through a direct interaction
Protein identified by Mass Spec.; New MTX interactor ([1]; listed as MTX): ✓
Protein identified by Mass Spec.; New MTX interactor [2]: direct binder of Methotrexate
Protein identified by Mass Spec.; New MTX interactor ([2]; listed as MTX): ✓
Protein identified by Mass Spec.; New MTX interactor [3]: direct binder of Methotrexate
Protein identified by Mass Spec.; New MTX interactor ([3]; listed as MTX): ✓
Association with the Methotrexate matrix [4]: indirect interaction with Methotrexate
Association with the Methotrexate matrix [5]: consistently found
Association with the Methotrexate matrix [6]: a single band contained peptides from both domains
inhibition of muscle glycogen phosphorylase b [7]: reversible inhibitors
effect on levels of PRPP [8]: raising the intracellular levels of PRPP; also recorded: increase on levels of PRPP
Protein identified by Mass Spec.; New MTX interactor [9]: found to interact with Methotrexate
Protein identified by Mass Spec.; New MTX interactor ([9]; listed as MTX): ✓
